According to ChEMBL document CHEMBL3853262 (Medchemcomm, 2016):
Active and inactive are the calls of the source. The rule behind the calls is not given here.

Tests used:
NTERA-2-cl-D1 [1] = experiment: Proapoptotic activity in human NT2/D1 cells assessed as early apoptotic cells at 25 uM after 1 hr by annexin V/propidium iodide staining-based capillary cytometric method relative to control; assay type: functional
NTERA-2-cl-D1 [2] = experiment: Proapoptotic activity in human NT2/D1 cells assessed as necrotic cells at 25 uM after 1 hr by annexin V/propidium iodide staining-based capillary cytometric method relative to control; assay type: functional
ASPC1 = experiment: Proapoptotic activity in human AsPC1 cells by annexin V-FITC/propidium iodide staining-based capillary cytometric method; assay type: functional, cell-based
THP-1 [3] = experiment: Induction of apoptosis in human THP1 cells assessed as activation of caspase 3/7 by measuring DNA fragmentation at 25 uM after 3 hrs by 7-AAD staining-based capillary cytometric method; assay type: functional, cell-based
NTERA-2-cl-D1 [4] = experiment: Induction of apoptosis in human NT2/D1 cells assessed as late apoptotic cells at 25 uM after 4 hrs in presence of pan caspase inhibitor Z-VAD-fmk by annexin V/propidium iodide staining-based capillary cytometric method (reference value: 0.70%); assay type: functional
THP-1 [5] = experiment: Proapoptotic activity in human THP1 cells assessed as early apoptotic cells at 25 uM after 1 hr by annexin V/propidium iodide staining-based capillary cytometric method relative to control; assay type: functional
NTERA-2-cl-D1 [6] = experiment: Proapoptotic activity in human NT2/D1 cells assessed as viable cells at 25 uM after 3 hrs by annexin V/propidium iodide staining-based capillary cytometric method relative to control; assay type: functional; conditions: NTERA-2-cl-D1, 3 h, read-out: Activity
THP-1 [7] = experiment: Induction of apoptosis in human THP1 cells assessed as activation of caspase 8/9 at 25 uM by 7-AAD staining-based capillary cytometric method; assay type: functional, cell-based
THP-1 [8] = experiment: Proapoptotic activity in human THP1 cells assessed as necrotic cells at 25 uM after 5 hrs by annexin V/propidium iodide staining-based capillary cytometric method relative to control; assay type: functional
THP-1 [9] = experiment: Induction of apoptosis in human THP1 cells assessed as late apoptotic cells at 25 uM after 4 hrs by annexin V/propidium iodide staining-based capillary cytometric method (reference value: 0.34%); assay type: functional
NTERA-2-cl-D1 [10] = experiment: Proapoptotic activity in human NT2/D1 cells by annexin V-FITC/propidium iodide staining-based capillary cytometric method; assay type: functional, cell-based
THP-1 [11] = experiment: Proapoptotic activity in human THP1 cells assessed as late apoptotic cells at 25 uM after 3 hrs by annexin V/propidium iodide staining-based capillary cytometric method relative to control; assay type: functional
NTERA-2-cl-D1 [12] = experiment: Induction of apoptosis in human NT2/D1 cells assessed as viable cells at 25 uM after 4 hrs in presence of pan caspase inhibitor Z-VAD-fmk by annexin V/propidium iodide staining-based capillary cytometric method (reference value: 95.80%); assay type: functional; conditions: NTERA-2-cl-D1, 4 h, read-out: Activity
THP-1 [13] = experiment: Proapoptotic activity in human THP1 cells assessed as early apoptotic cells at 25 uM after 5 hrs by annexin V/propidium iodide staining-based capillary cytometric method relative to control; assay type: functional
THP-1 [14] = experiment: Induction of DNA fragmentation in human THP1 cells at 25 uM after 6 to 24 hrs by propidium iodide/RNase staining-based capillary cytometric method; assay type: functional, cell-based
THP-1 [15] = experiment: Proapoptotic activity in human THP1 cells assessed as viable cells at 25 uM after 7 hrs by annexin V/propidium iodide staining-based capillary cytometric method relative to control; assay type: functional; conditions: THP-1, 7 h, read-out: Activity
THP-1 [16] = experiment: Proapoptotic activity in human THP1 cells assessed as necrotic cells at 25 uM after 7 hrs by annexin V/propidium iodide staining-based capillary cytometric method relative to control; assay type: functional
THP-1 [17] = experiment: Induction of apoptosis in human THP1 cells assessed as early apoptotic cells at 25 uM after 4 hrs in presence of pan caspase inhibitor Z-VAD-fmk by annexin V/propidium iodide staining-based capillary cytometric method (reference value: 3.22%); assay type: functional
NTERA-2-cl-D1 [18] = experiment: Proapoptotic activity in human NT2/D1 cells assessed as late apoptotic cells at 25 uM after 5 hrs by annexin V/propidium iodide staining-based capillary cytometric method relative to control; assay type: functional
NTERA-2-cl-D1 [19] = experiment: Proapoptotic activity in human NT2/D1 cells assessed as necrotic cells at 25 uM after 7 hrs by annexin V/propidium iodide staining-based capillary cytometric method relative to control; assay type: functional
NTERA-2-cl-D1 [20] = experiment: Proapoptotic activity in human NT2/D1 cells assessed as viable cells at 25 uM after 5 hrs by annexin V/propidium iodide staining-based capillary cytometric method relative to control; assay type: functional; conditions: NTERA-2-cl-D1, 5 h, read-out: Activity
THP-1 [21] = experiment: Proapoptotic activity in human THP1 cells assessed as necrotic cells at 25 uM after 3 hrs by annexin V/propidium iodide staining-based capillary cytometric method relative to control; assay type: functional
THP-1 [22] = experiment: Proapoptotic activity in human THP1 cells assessed as late apoptotic cells at 25 uM after 1 hr by annexin V/propidium iodide staining-based capillary cytometric method relative to control; assay type: functional
THP-1 [23] = experiment: Proapoptotic activity in human THP1 cells assessed as viable cells at 25 uM after 1 hr by annexin V/propidium iodide staining-based capillary cytometric method relative to control; assay type: functional; conditions: THP-1, 1 h, read-out: Activity
NTERA-2-cl-D1 [24] = experiment: Proapoptotic activity in human NT2/D1 cells assessed as early apoptotic cells at 25 uM after 3 hrs by annexin V/propidium iodide staining-based capillary cytometric method relative to control; assay type: functional
NTERA-2-cl-D1 [25] = experiment: Induction of apoptosis in human NT2/D1 cells assessed as late apoptotic cells at 25 uM after 4 hrs by annexin V/propidium iodide staining-based capillary cytometric method (reference value: 0.70%); assay type: functional
NTERA-2-cl-D1 [26] = experiment: Proapoptotic activity in human NT2/D1 cells assessed as late apoptotic cells at 25 uM after 7 hrs by annexin V/propidium iodide staining-based capillary cytometric method relative to control; assay type: functional
THP-1 [27] = experiment: Induction of apoptosis in human THP1 cells assessed as late necrotic cells at 25 uM after 4 hrs in presence of pan caspase inhibitor Z-VAD-fmk by annexin V/propidium iodide staining-based capillary cytometric method (reference value: 0.04%); assay type: functional
NTERA-2-cl-D1 [28] = experiment: Induction of apoptosis in human NT2/D1 cells assessed as necrotic cells at 25 uM after 4 hrs in presence of pan caspase inhibitor Z-VAD-fmk by annexin V/propidium iodide staining-based capillary cytometric method (reference value: 0.10%); assay type: functional

Structure (SMILES): CNc1nc(-c2cccc(NC(=O)c3cc4ccccc4[nH]3)c2)c[nH]1.Cl
- Activity (NTERA-2-cl-D1 [1]): 8.6%
- Activity (NTERA-2-cl-D1 [2]): 0.11%
- EC50 (ASPC1): 32 µM
- Activity (THP-1 [3]): Active
- Activity (NTERA-2-cl-D1 [4]): 2.87%
- Activity (THP-1 [5]): 1.45%
- viability at 25 µM (NTERA-2-cl-D1 [6]): 73.9%
- Activity (THP-1 [7]): Active
- Activity (THP-1 [8]): 0.1%
- Activity (THP-1 [9]): 89.44%
- EC50 (NTERA-2-cl-D1 [10]): 11 µM
- Activity (THP-1 [11]): 16.53%
- viability at 25 µM (NTERA-2-cl-D1 [12]): 88.8%
- Activity (THP-1 [13]): 33.25%
- Activity (THP-1 [14]): Active
- viability at 25 µM (THP-1 [15]): 17.8%
- Activity (THP-1 [16]): 0.2%
- Activity (THP-1 [17]): 64.66%
- Activity (NTERA-2-cl-D1 [18]): 6.08%
- Activity (NTERA-2-cl-D1 [19]): 0%
- viability at 25 µM (NTERA-2-cl-D1 [20]): 47%
- Activity (THP-1 [21]): 0.3%
- Activity (THP-1 [22]): 2.66%
- viability at 25 µM (THP-1 [23]): 95.7%
- Activity (NTERA-2-cl-D1 [24]): 22.77%
- Activity (NTERA-2-cl-D1 [25]): 5.16%
- Activity (NTERA-2-cl-D1 [26]): 13.18%
- Activity (THP-1 [27]): 0.1%
- Activity (NTERA-2-cl-D1 [28]): 0.17%
